# Values of other authors as cited in PMC11678311, “Log BB Prediction Models Using TLC and HPLC Retention Values as Protein Affinity Data” (Pharmaceutics, 2024).
# Conditions: drugs highly bound to plasma proteins whose log BB may be less than zero
row,Compound,penetration of the blood–brain barrier / central action
1,CC(C)Cc1ccc(C(C)C(=O)O)cc1 (centres unmarked) [ibuprofen],cross the blood–brain barrier in an unbound state and act centrally
2,Cc1ncc2n1-c1ccc(Cl)cc1C(c1ccccc1F)=NC2 [midazolam],cross the blood–brain barrier in an unbound state and act centrally
